According to PubChem BioAssay AID1963958 (Molecular Pharmacology Branch, DTP, NCI, 2024):
pIC50: −log10 of the molar value.

System: MDA-MB-231 multicell spheroids, viability
Experiment: Anticancer human tumor MDA-MB-231 cell line growth inhibition [PI3K];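 further: spheroids exposed to agents for seven days before reading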;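 on viability, T/C: percent of vehicle control luminescence with DMSO treated spheroids as 100%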
Conditions: for pIC50: curve of first compound; for viability, T/C: stronger effect = lower value
Procedure, shortened: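 Complex 3D spheroids (cancer cells + endothelial HUVEC + mesenchymal stem cells); drug pairs of targeted agent x inavolisib/alpelisib/duvelisib/copanlisib; half-log series from ~Cmax, max 10 microM if Cmax unknown; endpoint viability.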

[1] = second compound 0.0316 µM, first compound 0.0316 µM
[2] = second compound 0.0316 µM, first compound 0.1 µM
[3] = second compound 0.0316 µM, first compound 0.316 µM
[4] = second compound 0.0316 µM, first compound 1 µM
[5] = second compound 0.0316 µM, first compound 3.16 µM
[6] = second compound 0.0316 µM, first compound 10 µM
[7] = second compound 0.1 µM, first compound 0.0316 µM
[8] = second compound 0.1 µM, first compound 0.1 µM
[9] = second compound 0.1 µM, first compound 0.316 µM
[10] = second compound 0.1 µM, first compound 1 µM
[11] = second compound 0.1 µM, first compound 3.16 µM
[12] = second compound 0.1 µM, first compound 10 µM
[13] = second compound 0.316 µM, first compound 0.0316 µM
[14] = second compound 0.316 µM, first compound 0.1 µM
[15] = second compound 0.316 µM, first compound 0.316 µM
[16] = second compound 0.316 µM, first compound 1 µM
[17] = second compound 0.316 µM, first compound 3.16 µM
[18] = second compound 0.316 µM, first compound 10 µM
[19] = second compound 1 µM, first compound 0.0316 µM
[20] = second compound 1 µM, first compound 0.1 µM
[21] = second compound 1 µM, first compound 0.316 µM
[22] = second compound 1 µM, first compound 1 µM
[23] = second compound 1 µM, first compound 3.16 µM
[24] = second compound 1 µM, first compound 10 µM
[25] = second compound 3.16 µM, first compound 0.0316 µM
[26] = second compound 3.16 µM, first compound 0.1 µM
[27] = second compound 3.16 µM, first compound 0.316 µM
[28] = second compound 3.16 µM, first compound 1 µM
[29] = second compound 3.16 µM, first compound 3.16 µM
[30] = second compound 3.16 µM, first compound 10 µM
[31] = second compound 10 µM, first compound 0.0316 µM
[32] = second compound 10 µM, first compound 0.1 µM
[33] = second compound 10 µM, first compound 0.316 µM
[34] = second compound 10 µM, first compound 1 µM
[35] = second compound 10 µM, first compound 3.16 µM
[36] = second compound 10 µM, first compound 10 µM

## CCCS(=O)(=O)Nc1ccc(F)c(C(=O)c2c[nH]c3ncc(-c4ccc(Cl)cc4)cc23)c1F + Cc1nc(NC(=O)N2CCCC2C(N)=O)sc1-c1ccnc(C(C)(C)C(F)(F)F)c1
Second compound 0.0316 µM
  pIC50: 5.33
Second compound 0.1 µM
  pIC50: 5.45
Second compound 0.316 µM
  pIC50: 5.60
Second compound 1 µM
  pIC50: 5.81
Second compound 3.16 µM
  pIC50: 5.93
Second compound 10 µM
  pIC50: 6.44
[1]
  viability, T/C: 102%
[2]
  viability, T/C: 102%
[3]
  viability, T/C: 85.5%
[4]
  viability, T/C: 80%
[5]
  viability, T/C: 59.4%
[6]
  viability, T/C: 31.7%
[7]
  viability, T/C: 90.6%
[8]
  viability, T/C: 96.6%
[9]
  viability, T/C: 83.6%
[10]
  viability, T/C: 74.1%
[11]
  viability, T/C: 51.6%
[12]
  viability, T/C: 32.6%
[13]
  viability, T/C: 80.4%
[14]
  viability, T/C: 80.8%
[15]
  viability, T/C: 72.7%
[16]
  viability, T/C: 67.2%
[17]
  viability, T/C: 45.3%
[18]
  viability, T/C: 31.4%
[19]
  viability, T/C: 72.3%
[20]
  viability, T/C: 66.6%
[21]
  viability, T/C: 64.8%
[22]
  viability, T/C: 57.5%
[23]
  viability, T/C: 38.9%
[24]
  viability, T/C: 29%
[25]
  viability, T/C: 68.8%
[26]
  viability, T/C: 64.8%
[27]
  viability, T/C: 62.3%
[28]
  viability, T/C: 51.2%
[29]
  viability, T/C: 38.8%
[30]
  viability, T/C: 25.9%
[31]
  viability, T/C: 61.1%
[32]
  viability, T/C: 56%
[33]
  viability, T/C: 50.3%
[34]
  viability, T/C: 43%
[35]
  viability, T/C: 36.8%
[36]
  viability, T/C: 22.3%

## C[C@@H](NC(=O)c1ncnc(N)c1Cl)c1ncc(C(=O)Nc2cc(C(F)(F)F)c(Cl)cn2)s1 + Cc1nc(NC(=O)N2CCCC2C(N)=O)sc1-c1ccnc(C(C)(C)C(F)(F)F)c1
Second compound 0.0316 µM
  pIC50: < 5.00
Second compound 0.1 µM
  pIC50: 5.42
Second compound 0.316 µM
  pIC50: 6.07
Second compound 1 µM
  pIC50: 6.45
Second compound 3.16 µM
  pIC50: 7.02
Second compound 10 µM
  pIC50: > 7.50
[1]
  viability, T/C: 112%
[2]
  viability, T/C: 77.8%
[3]
  viability, T/C: 75%
[4]
  viability, T/C: 72.1%
[5]
  viability, T/C: 61.3%
[6]
  viability, T/C: 44.9%
[7]
  viability, T/C: 99.4%
[8]
  viability, T/C: 77.2%
[9]
  viability, T/C: 61.8%
[10]
  viability, T/C: 67.7%
[11]
  viability, T/C: 53.6%
[12]
  viability, T/C: 41.3%
[13]
  viability, T/C: 81%
[14]
  viability, T/C: 63.7%
[15]
  viability, T/C: 53.9%
[16]
  viability, T/C: 50.2%
[17]
  viability, T/C: 49.9%
[18]
  viability, T/C: 37.1%
[19]
  viability, T/C: 74.8%
[20]
  viability, T/C: 61%
[21]
  viability, T/C: 47.1%
[22]
  viability, T/C: 44.8%
[23]
  viability, T/C: 38.8%
[24]
  viability, T/C: 29.2%
[25]
  viability, T/C: 60.2%
[26]
  viability, T/C: 48.7%
[27]
  viability, T/C: 40.6%
[28]
  viability, T/C: 37.7%
[29]
  viability, T/C: 35.7%
[30]
  viability, T/C: 27.4%
[31]
  viability, T/C: 42.3%
[32]
  viability, T/C: 37.2%
[33]
  viability, T/C: 32.3%
[34]
  viability, T/C: 30.9%
[35]
  viability, T/C: 24.6%
[36]
  viability, T/C: 14.9%

## Cn1ncnc1[C@H]1c2n[nH]c(=O)c3cc(F)cc(c23)N[C@@H]1c1ccc(F)cc1 + Cc1nc(NC(=O)N2CCCC2C(N)=O)sc1-c1ccnc(C(C)(C)C(F)(F)F)c1
Second compound 0.0316 µM
  pIC50: < 7.00
Second compound 0.1 µM
  pIC50: < 7.00
Second compound 0.316 µM
  pIC50: < 7.00
Second compound 1 µM
  pIC50: < 7.00
Second compound 3.16 µM
  pIC50: < 7.00
Second compound 10 µM
  pIC50: < 7.00
Second compound 0.0316 µM, first compound 0.000316 µM
  viability, T/C: 89.3%
Second compound 0.0316 µM, first compound 0.001 µM
  viability, T/C: 88.9%
Second compound 0.0316 µM, first compound 0.00316 µM
  viability, T/C: 86.8%
Second compound 0.0316 µM, first compound 0.01 µM
  viability, T/C: 83.4%
[1]
  viability, T/C: 79%
[2]
  viability, T/C: 72.6%
Second compound 0.1 µM, first compound 0.000316 µM
  viability, T/C: 88.4%
Second compound 0.1 µM, first compound 0.001 µM
  viability, T/C: 82%
Second compound 0.1 µM, first compound 0.00316 µM
  viability, T/C: 77.5%
Second compound 0.1 µM, first compound 0.01 µM
  viability, T/C: 68.7%
[7]
  viability, T/C: 65%
[8]
  viability, T/C: 63.2%
Second compound 0.316 µM, first compound 0.000316 µM
  viability, T/C: 67.2%
Second compound 0.316 µM, first compound 0.001 µM
  viability, T/C: 75.2%
Second compound 0.316 µM, first compound 0.00316 µM
  viability, T/C: 65.6%
Second compound 0.316 µM, first compound 0.01 µM
  viability, T/C: 64.1%
[13]
  viability, T/C: 59.7%
[14]
  viability, T/C: 53.5%
Second compound 1 µM, first compound 0.000316 µM
  viability, T/C: 68.3%
Second compound 1 µM, first compound 0.001 µM
  viability, T/C: 66%
Second compound 1 µM, first compound 0.00316 µM
  viability, T/C: 65.1%
Second compound 1 µM, first compound 0.01 µM
  viability, T/C: 60%
[19]
  viability, T/C: 55.2%
[20]
  viability, T/C: 49.7%
Second compound 3.16 µM, first compound 0.000316 µM
  viability, T/C: 64.5%
Second compound 3.16 µM, first compound 0.001 µM
  viability, T/C: 63.4%
Second compound 3.16 µM, first compound 0.00316 µM
  viability, T/C: 64.5%
Second compound 3.16 µM, first compound 0.01 µM
  viability, T/C: 54%
[25]
  viability, T/C: 54.6%
[26]
  viability, T/C: 50.4%
Second compound 10 µM, first compound 0.000316 µM
  viability, T/C: 66%
Second compound 10 µM, first compound 0.001 µM
  viability, T/C: 63.4%
Second compound 10 µM, first compound 0.00316 µM
  viability, T/C: 56%
Second compound 10 µM, first compound 0.01 µM
  viability, T/C: 59.8%
[31]
  viability, T/C: 54.4%
[32]
  viability, T/C: 48.8%
